Biological target: human recombinant 5-HT2A receptor (Homo sapiens (Human), UniProt P28223)
Experiment: 5-HT2A receptor binding inhibition test ([3H]-Ketanserin)
Settings: Jump-In HEK cell membrane, 25° C. 1.5 hours, read-out: h-5-HT2A Ki
Method in brief: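 Membranes from Jump-In HEK cells expressing the receptor were incubated with [3H]-ketanserin at about its Kd (from Scatchard analysis) in Tris-HCl pH 7.4 buffer for 1.5 h at 25° C, then filtered and counted. Non-specific binding was defined with 500 μmol/L serotonin, and Ki was taken from dose-response curves.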

Sequence of human recombinant 5-HT2A receptor (P28223 whole entry): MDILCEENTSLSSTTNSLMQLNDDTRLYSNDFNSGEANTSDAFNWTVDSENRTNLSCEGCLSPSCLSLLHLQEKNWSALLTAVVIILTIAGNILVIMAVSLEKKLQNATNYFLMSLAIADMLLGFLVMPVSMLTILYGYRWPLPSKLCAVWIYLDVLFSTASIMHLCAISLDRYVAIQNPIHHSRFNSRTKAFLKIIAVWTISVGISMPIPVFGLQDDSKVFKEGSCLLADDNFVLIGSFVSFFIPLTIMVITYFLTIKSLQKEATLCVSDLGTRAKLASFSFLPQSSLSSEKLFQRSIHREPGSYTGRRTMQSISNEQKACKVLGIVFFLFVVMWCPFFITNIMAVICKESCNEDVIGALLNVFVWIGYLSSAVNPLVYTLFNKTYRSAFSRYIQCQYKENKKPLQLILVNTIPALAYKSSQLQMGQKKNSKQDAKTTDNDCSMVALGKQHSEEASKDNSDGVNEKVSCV

SMILES	Ki [nM]
Cc1nc(CN(Cc2nc3ccccc3o2)C2=NOC3(CCN(C)CC3)N2)co1 [Compound I-094]	10 to 100
Cc1nc(CN(Cc2ccc(OCC(F)(F)C(F)(F)F)cc2)C2=NOC3(CCN(C)CC3)N2)co1 [Compound I-082]	< 10
CCCCOc1ccc(CN(Cc2cnn(C)n2)C2=NOC3(CCN(C)CC3)N2)cc1F [Compound I-111]	< 10
Cc1nc(CN(Cc2ccc(OCC3CCC3)cc2)C2=NOC3(CCN(C)CC3)N2)co1 [Compound I-083]	< 10
CN1CCC2(CC1)NC(N(Cc1ccc(OCC(F)(F)F)c(F)c1)Cc1coc(C3CC3)n1)=NO2 [Compound I-116]	< 10
Cc1nc(CN(Cc2ccc(OCC3CC(F)(F)C3)cc2)C2=NOC3(CCN(C)CC3)N2)co1 [Compound I-084]	< 10
Cc1nc(CN(Cc2ccc(OCC(C)C)c(F)c2)C2=NOC3(CCN(C)CC3)N2)co1 [Compound I-127]	< 10
Cc1nc(CN(Cc2ccc(OCC(F)(F)F)cc2)C2=NOC3(CCN(C)CC3)N2)co1 [Compound I-047]	< 10
CC(C)COc1ccc(CN(Cc2cnn(C)n2)C2=NOC3(CCN(C)CC3)N2)cc1F [Compound I-107]	< 10
CCc1nc(CN(Cc2ccc(OCC(C)C)cc2)C2=NOC3(CCN(C)CC3)N2)co1 [Compound I-068]	< 10
CCCCOc1ccc(CN(Cc2coc(C)n2)C2=NOC3(CCNCC3)N2)cc1 [Compound I-134]	< 10

Continued, values first:

Ki [nM]	SMILES
< 10	CCCOc1ccc(CC2=NOC3(CCN(C)CC3)N2Cc2ccc(F)cn2)cc1 [Compound I-024]
< 10	CC(C)COc1ccc(CN(Cc2ccn(C3CC3)n2)C2=NOC3(CCN(C)CC3)N2)cc1 [Compound I-100]
10 to 100	CC(C)CNc1ccc(CN(Cc2ccn(C)n2)C2=NOC3(CCN(C)CC3)N2)cc1 [Compound I-023]
< 10	CCCOc1ccc(CN(Cc2ccn(C)n2)C2=NOC3(CCN(C)CC3)N2)cc1 [Compound I-014]
100 to 500	Cc1nc(CN(Cc2ccc3c(c2)nnn3C)C2=NOC3(CCN(C)CC3)N2)co1 [Compound I-093]
< 10	Cc1nc(CN(Cc2ccc3ncccc3c2)C2=NOC3(CCN(C)CC3)N2)co1 [Compound I-096]
10 to 100	Cc1nc(CN(Cc2cnc3ccccc3c2)C2=NOC3(CCN(C)CC3)N2)co1 [Compound I-095]
10 to 100	Cc1cc(CN(Cc2ccc(OCC(C)C)cc2)C2=NOC3(CCN(C)CC3)N2)on1 [Compound I-076]
< 10	Cc1ccc(CN(Cc2ccc(OCC(C)C)cc2)C2=NOC3(CCN(C)CC3)N2)cn1 [Compound I-081]
10 to 100	Cc1nc(CN(Cc2ccc(OCC(C)C)cc2)C2=NC(=O)C3(CCN(C)CC3)N2)co1 [Compound I-039]
10 to 100	Cc1nc(CN(Cc2cn3ccccc3n2)C2=NOC3(CCN(C)CC3)N2)co1 [Compound I-091]

Same assay, conditions: Jump-In HEK cell membrane, 25° C. 1.5 hours, read-out: human serotonin 5-HT2A receptor binding activity Ki

Ki [nM]	SMILES
11.1	CC(C)COc1ccc(C[C@H]2C(=O)NC3(CCN(C)CC3)N2Cc2ccc(F)cc2)cc1 [Compound I-002]
1.29	Cc1nc(CN(Cc2ccc(OCC(C)C)c(F)c2)C2=NOC3(CCNCC3)N2)co1 [Compound I-130]

Biological target: human recombinant 5-HT2C receptor (Homo sapiens (Human), UniProt P28335)
Experiment: 5-HT2C receptor binding inhibition test ([3H]-Mesulergine)
Settings: Jump-In HEK cell membrane, 37° C. 2 hours, read-out: h-5-HT2C Ki
Method in brief: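 Radioligand displacement on HEK membranes expressing human recombinant 5-HT2C (0.5 μg/well), [3H]-mesulergine near its Kd, in pH 7.4 Tris-HCl buffer with NaCl, MgCl2, KCl, CaCl2 and 0.1% BSA, 2 h at 37° C. Bound radioactivity measured after GF/B filtration; non-specific binding defined with 500 μmol/L serotonin, Ki from dose-response curve.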

Sequence of human recombinant 5-HT2C receptor (P28335 33-458): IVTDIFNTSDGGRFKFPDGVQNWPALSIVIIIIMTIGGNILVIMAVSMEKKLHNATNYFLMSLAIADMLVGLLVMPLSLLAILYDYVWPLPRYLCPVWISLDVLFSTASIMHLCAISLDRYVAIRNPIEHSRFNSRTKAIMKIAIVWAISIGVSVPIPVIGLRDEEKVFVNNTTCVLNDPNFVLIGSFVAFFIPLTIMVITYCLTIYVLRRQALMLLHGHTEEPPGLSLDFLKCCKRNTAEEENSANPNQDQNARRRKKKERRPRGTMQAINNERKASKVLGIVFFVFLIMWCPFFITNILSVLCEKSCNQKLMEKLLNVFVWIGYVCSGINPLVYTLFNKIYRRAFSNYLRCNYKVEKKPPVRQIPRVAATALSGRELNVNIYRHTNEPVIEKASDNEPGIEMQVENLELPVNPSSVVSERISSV

SMILES	Ki [nM]
Cc1nc(CN(Cc2nc3ccccc3o2)C2=NOC3(CCN(C)CC3)N2)co1 [Compound I-094]	10 to 100
Cc1nc(CN(Cc2ccc(OCC(F)(F)C(F)(F)F)cc2)C2=NOC3(CCN(C)CC3)N2)co1 [Compound I-082]	< 10
CCCCOc1ccc(CN(Cc2cnn(C)n2)C2=NOC3(CCN(C)CC3)N2)cc1F [Compound I-111]	< 10
Cc1nc(CN(Cc2ccc(OCC3CCC3)cc2)C2=NOC3(CCN(C)CC3)N2)co1 [Compound I-083]	< 10
CN1CCC2(CC1)NC(N(Cc1ccc(OCC(F)(F)F)c(F)c1)Cc1coc(C3CC3)n1)=NO2 [Compound I-116]	< 10
Cc1nc(CN(Cc2ccc(OCC3CC(F)(F)C3)cc2)C2=NOC3(CCN(C)CC3)N2)co1 [Compound I-084]	< 10
Cc1nc(CN(Cc2ccc(OCC(C)C)c(F)c2)C2=NOC3(CCN(C)CC3)N2)co1 [Compound I-127]	< 10
Cc1nc(CN(Cc2ccc(OCC(F)(F)F)cc2)C2=NOC3(CCN(C)CC3)N2)co1 [Compound I-047]	< 10
CC(C)COc1ccc(CN(Cc2cnn(C)n2)C2=NOC3(CCN(C)CC3)N2)cc1F [Compound I-107]	< 10
CCc1nc(CN(Cc2ccc(OCC(C)C)cc2)C2=NOC3(CCN(C)CC3)N2)co1 [Compound I-068]	< 10
CCCCOc1ccc(CN(Cc2coc(C)n2)C2=NOC3(CCNCC3)N2)cc1 [Compound I-134]	< 10

Now from value to molecule:

Ki [nM]	SMILES
10 to 100	CCCOc1ccc(CC2=NOC3(CCN(C)CC3)N2Cc2ccc(F)cn2)cc1 [Compound I-024]
10 to 100	CC(C)COc1ccc(CN(Cc2ccn(C3CC3)n2)C2=NOC3(CCN(C)CC3)N2)cc1 [Compound I-100]
10 to 100	CC(C)CNc1ccc(CN(Cc2ccn(C)n2)C2=NOC3(CCN(C)CC3)N2)cc1 [Compound I-023]
10 to 100	CCCOc1ccc(CN(Cc2ccn(C)n2)C2=NOC3(CCN(C)CC3)N2)cc1 [Compound I-014]
100 to 500	Cc1nc(CN(Cc2ccc3c(c2)nnn3C)C2=NOC3(CCN(C)CC3)N2)co1 [Compound I-093]
10 to 100	Cc1nc(CN(Cc2ccc3ncccc3c2)C2=NOC3(CCN(C)CC3)N2)co1 [Compound I-096]
100 to 500	Cc1nc(CN(Cc2cnc3ccccc3c2)C2=NOC3(CCN(C)CC3)N2)co1 [Compound I-095]
100 to 500	Cc1cc(CN(Cc2ccc(OCC(C)C)cc2)C2=NOC3(CCN(C)CC3)N2)on1 [Compound I-076]
100 to 500	Cc1ccc(CN(Cc2ccc(OCC(C)C)cc2)C2=NOC3(CCN(C)CC3)N2)cn1 [Compound I-081]
< 10	Cc1nc(CN(Cc2ccc(OCC(C)C)cc2)C2=NC(=O)C3(CCN(C)CC3)N2)co1 [Compound I-039]
100 to 500	Cc1nc(CN(Cc2cn3ccccc3n2)C2=NOC3(CCN(C)CC3)N2)co1 [Compound I-091]

Same assay, conditions: Jump-In HEK cell membrane, 37° C. 2 hours, read-out: human serotonin 5-HT2C receptor binding activity Ki

Ki [nM]	SMILES
27.1	CC(C)COc1ccc(C[C@H]2C(=O)NC3(CCN(C)CC3)N2Cc2ccc(F)cc2)cc1 [Compound I-002]
0.535	Cc1nc(CN(Cc2ccc(OCC(C)C)c(F)c2)C2=NOC3(CCNCC3)N2)co1 [Compound I-130]

Source: patent US20250026765A1, “SPIROHETEROCYCLE DERIVATIVE HAVING SEROTONIN RECEPTOR BINDING ACTIVITY” (Shionogi & Co., Ltd., priority 2021, published 2025)
